The test system of the test is CD-1 mice. Format: in vivo. To be noted: mouse, in vivo, sc, 0.15 mg/kg. The method, then: Twenty-eight healthy female CD-1 mice aged 4-6 weeks are selected and divided into 4 groups, and they are injected subcutaneously with M4, M5, M7 and M0 at a dose of 0.15 mg/kg body weight.

Where two headings read alike, the source gives them in different places. *1 amine or outer side, *2 acyl side, *3 side chain or, on linkers, in order; H or OH if unused. Where a SMILES comes first, the peptide text is derived from it. Side-chain parts run from the residue outwards. The star is where a group is joined. C18 diacid = O=C(O)CCCCCCCCCCCCCCCCC(=O)*; γGlu = O=C(O)[C@H](CCC(=O)[*:2])N[*:1]; AEEA = NCCOCCOCC(=O)O

Turning to `CC[C@H](C)[C@H](NC(=O)[C@H](Cc1ccccc1)NC(=O)[C@H](CCC(=O)O)NC(=O)[C@H](CCCNC(=N)N)NC(=O)[C@H](C)NC(=O)[C@H](C)NC(=O)[C@H](CCCCNC(=O)COCCOCCNC(=O)COCCOCCNC(=O)CC[C@H](NC(=O)CCCCCCCCCCCCCCCCC(=O)O)C(=O)O)NC(=O)[C@H](CCC(=O)O)NC(=O)[C@H](CCC(=O)O)NC(=O)[C@H](CC(C)C)NC(=O)[C@H](Cc1ccc(O)cc1)NC(=O)[C@H](CO)NC(=O)[C@H](CO)NC(=O)[C@@H](NC(=O)[C@H](CC(=O)O)NC(=O)[C@H](CO)NC(=O)[C@@H](NC(=O)[C@H](Cc1ccccc1)NC(=O)[C@@H](NC(=O)CNC(=O)[C@H](CCC(=O)O)NC(=O)[C@@H](NC(=O)[C@@H](N)Cc1c[nH]cn1)C(C)C)[C@@H](C)O)[C@@H](C)O)C(C)C)C(=O)N[C@@H](C)C(=O)N[C@@H](Cc1c[nH]c2ccccc12)C(=O)N[C@@H](CC(C)C)C(=O)N[C@H](C(=O)N[C@@H](CCCNC(=N)N)C(=O)NCC(=O)N[C@@H](CCCNC(=N)N)C(=O)NCC(=O)O)C(C)C` [M2, N-ε^23-[2-(2-[2-(2-[2-(2-[4-(17-carboxyheptadecanoylamino)-4(s)-carboxybutyrylamino]ethoxy)ethoxy]acetylamino)ethoxy]ethoxy)acetyl](Val^8Glu^22Lys^23Arg^26,34-GLP-1 (7-37)) peptide] (H-HVEGTFTSDVSSYLEEK([AEEA-AEEA-γGlu-C18 diacid])AAREFIAWLVRGRG-OH; N-terminus and C-terminus assumed), the “Inhibition rate (blood glucose)” value reads like this: (6 h) 34.29%; (30 h) 29.51%; (54 h) 27.23%; (78 h) 21.97%; (102 h) 10.15%.

The values are drawn from patent US12508300B2, “Acylated GLP-1 derivative” (Sciwind Biosciences Co., Ltd., priority 2019, dated 2025).
